From the NIST ThermoML archive (doi:10.1016/j.jct.2013.09.001)

What was measured:
[1] = 101 kPa, Liquid; for viscosity: Concentric cylinders viscometry; for mass density: Vibrating tube method
[2] = xn = mol fraction of the nth substance listed; details: 101 kPa, Liquid; for mass density: Vibrating tube method; for viscosity: Concentric cylinders viscometry

CC(=O)[O-].CCCCn1cc[n+](C)c1 [1-butyl-3-methylimidazolium acetate]
[1]
Details | mass density [kg/m3] | viscosity [mPa·s]
293.15 K | 1056.1 | 549.9
303.15 K | 1049.6 | 257.4
313.15 K | 1043.5 | 135.5
323.15 K | 1037.4 | 78.4
333.15 K | 1031.3 | 49
343.15 K | 1025.4 | 32.5
353.15 K | – | 22.7

OCCNCCO [diethanolamine] + CC(=O)[O-].CCCCn1cc[n+](C)c1
[2], x1 = 1
Details | mass density [kg/m3] | viscosity [mPa·s]
293.15 K | 1097.4 | –
303.15 K | 1090.5 | 386.6
313.15 K | 1083.9 | 189.7
323.15 K | 1077.1 | 101.2
333.15 K | 1070.3 | 57.9
343.15 K | 1063.5 | 35.3
353.15 K | – | 22.7

CC(=O)[O-].CCCCn1cc[n+](C)c1 [1-butyl-3-methylimidazolium acetate] + OCCNCCO
[2]
Details | mass density, x2 = 0 [kg/m3] | mass density, x2 = 0.2 [kg/m3] | mass density, x2 = 0.4 [kg/m3] | mass density, x2 = 0.6 [kg/m3] | mass density, x2 = 0.8 [kg/m3] | viscosity, x2 = 0 [mPa·s] | viscosity, x2 = 0.2 [mPa·s] | viscosity, x2 = 0.4 [mPa·s] | viscosity, x2 = 0.6 [mPa·s] | viscosity, x2 = 0.8 [mPa·s]
293.15 K | 1056.1 | 1058.7 | 1062.8 | 1068.8 | 1079.7 | 549.9 | 425 | 319.4 | 286.8 | 400.1
303.15 K | 1049.6 | 1052.2 | 1056.3 | 1062.3 | 1073.1 | 257.4 | 208.3 | 176.1 | 150.8 | 197
313.15 K | 1043.5 | 1046.2 | 1050.3 | 1056.2 | 1067 | 135.5 | 114 | 95.9 | 86.8 | 106.3
323.15 K | 1037.4 | 1040.1 | 1044.2 | 1050.2 | 1060.7 | 78.4 | 68.4 | 59.2 | 53.8 | 62.2
333.15 K | 1031.3 | 1034.1 | 1038.1 | 1044.1 | 1054.4 | 49 | 43.9 | 38.9 | 35.4 | 38.9
343.15 K | 1025.4 | 1028.2 | 1032.2 | 1038.1 | 1048.3 | 32.5 | 29.8 | 26.9 | 24.6 | 25.8
353.15 K | – | – | – | – | – | 22.7 | 21.3 | 19.4 | 17.8 | 17.9

OCCNCCO [diethanolamine]
[1]
Details | mass density [kg/m3] | viscosity [mPa·s]
293.15 K | 1097.4 | –
303.15 K | 1090.5 | 386.6
313.15 K | 1083.9 | 189.7
323.15 K | 1077.1 | 101.2
333.15 K | 1070.3 | 57.9
343.15 K | 1063.5 | 35.3
353.15 K | – | 22.7

CN(CCO)CCO [N-methyldiethanolamine]
[1]
Details | mass density [kg/m3] | viscosity [mPa·s]
293.15 K | 1040.6 | 103.3
303.15 K | 1032.8 | 57.3
313.15 K | 1025.4 | 34.1
323.15 K | 1017.8 | 21.6
333.15 K | 1010 | 14.3
343.15 K | 1002.3 | 9.9
353.15 K | – | 7.2

CN(CCO)CCO [N-methyldiethanolamine] + CC(=O)[O-].CCCCn1cc[n+](C)c1
[2], x1 = 1
Details | mass density [kg/m3] | viscosity [mPa·s]
293.15 K | 1040.6 | 103.3
303.15 K | 1032.8 | 57.3
313.15 K | 1025.4 | 34.1
323.15 K | 1017.8 | 21.6
333.15 K | 1010 | 14.3
343.15 K | 1002.3 | 9.9
353.15 K | – | 7.2

CC(=O)[O-].CCCCn1cc[n+](C)c1 [1-butyl-3-methylimidazolium acetate] + CN(CCO)CCO
[2]
Details | mass density, x2 = 0 [kg/m3] | mass density, x2 = 0.2 [kg/m3] | mass density, x2 = 0.4 [kg/m3] | mass density, x2 = 0.6 [kg/m3] | mass density, x2 = 0.8 [kg/m3] | viscosity, x2 = 0 [mPa·s] | viscosity, x2 = 0.2 [mPa·s] | viscosity, x2 = 0.4 [mPa·s] | viscosity, x2 = 0.6 [mPa·s] | viscosity, x2 = 0.8 [mPa·s]
293.15 K | 1056.1 | 1052.6 | 1049.5 | 1046 | 1043.4 | 549.9 | 369.6 | 254.3 | 164.4 | 117.9
303.15 K | 1049.6 | 1046.1 | 1043 | 1039.2 | 1036.4 | 257.4 | 188.9 | 139.8 | 94.9 | 68.9
313.15 K | 1043.5 | 1040.1 | 1037 | 1033.1 | 1029.8 | 135.5 | 106.6 | 83.2 | 58.8 | 43.1
323.15 K | 1037.4 | 1034.1 | 1030.9 | 1026.8 | 1023.1 | 78.4 | 65 | 52.9 | 38.7 | 28.4
333.15 K | 1031.3 | 1028.1 | 1024.7 | 1020.5 | 1016.4 | 49 | 42.3 | 35.6 | 26.7 | 19.7
343.15 K | 1025.4 | 1022.3 | 1018.8 | 1014.4 | 1009.8 | 32.5 | 29 | 25.1 | 19.3 | 14.2
353.15 K | – | – | – | – | – | 22.7 | 20.7 | 18.3 | 14.4 | 10.6
